According to the METLIN SMRT retention time set (Domingo-Almenara et al. 2019):

Assay: gradient 5% acetonitrile 3 min, to 50% in 2 min, to 85% in 15 min, held 3 min, 100 µL/min
Details: column: Zorbax Extend-C18 2.1 x 50 mm; eluents: water / acetonitrile, 0.1% formic acid
Outline: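 Using water and acetonitrile that each contained 0.1% formic acid, mixtures of ~100 pure standards were separated at 100 μL/min on a Zorbax Extend-C18 column (2.1 × 50 mm, 1.8 μm). The HPLC fed a quadrupole time-of-flight mass spectrometer working in positive and negative ionization mode, with dead and dwell volumes of 40 μL and 900 μL. Data were acquired over 3 months. Retention time was read from computationally picked adduct peaks after manual inspection of each.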

SMILES: Cc1cccc(NC(=O)CN2C(=O)CC(C)S(=O)(=O)c3ccccc32)c1 (stereo not given)
- RP-LC retention time: 768 s

SMILES: Cc1ccc2c(c1)NN=C(C(=O)N1CCOCC1)S2(=O)=O
- RP-LC retention time: 639 s

SMILES: CCCn1ccc2sc(C)c(C(=O)NC3CC3)c2c1=O
- RP-LC retention time: 679 s

SMILES: Cc1cccc(CCNC(=O)Cc2csc3nc(-c4ccc(C)c(C)c4)cn23)c1
- RP-LC retention time: 911 s

SMILES: O=C(CF)N(O)c1ccc(/C=C/c2ccccc2)cc1
- RP-LC retention time: 959 s

SMILES: O=C(Cn1cccc1-c1nc(-c2ccc(Cl)cc2)cs1)NCC1CCCO1 (stereo not given)
- RP-LC retention time: 1030 s

SMILES: CCCn1c(=O)c(C)nc2cc(-c3noc(COc4ccc(OC)cc4)n3)ccc21
- RP-LC retention time: 1040 s

SMILES: COc1ccccc1C(=O)N1C[C@H](c2nc(-c3cccnc3)no2)[C@@H](C)C1
- RP-LC retention time: 758 s

SMILES: CC(C)c1ccc(S(=O)(=O)N2C[C@@H](F)C[C@H]2C(=O)N2CCCCC2)cc1
- RP-LC retention time: 930 s

SMILES: CC(C)n1c(=O)oc2cc(-c3noc(-c4ccccc4)n3)ccc21
- RP-LC retention time: 1060 s

SMILES: Cc1ccc(-c2nc3ncccn3c2Nc2ccccc2)cc1
- RP-LC retention time: 714 s

SMILES: CCC1CCCCN1C(=O)c1cnc2nc(C)ccc2c1Nc1ccc(F)c(C)c1 (stereo not given)
- RP-LC retention time: 680 s

SMILES: Cc1ccsc1C(=O)N1CCc2cc(-c3ccno3)ccc21
- RP-LC retention time: 924 s

SMILES: CCOCCCNC(=O)CN1C(=O)CCCc2ccccc21
- RP-LC retention time: 681 s

SMILES: Cc1ccccc1NC(=O)N1CCC(c2nc(C(=O)N3CCCC3)c(C)o2)CC1
- RP-LC retention time: 732 s

SMILES: Cc1ccc(S(=O)(=O)Cc2nc(-c3cccc(Br)c3)no2)cc1
- RP-LC retention time: 1040 s

SMILES: Cc1nc2ccn(Cc3cccs3)c(=O)c2cc1C(=O)NC1CCCCC1
- RP-LC retention time: 801 s

SMILES: CCCn1cc(CCNC(=O)Nc2cccc(C)c2C)c2cccnc21
- RP-LC retention time: 785 s

SMILES: Cc1ccc(CNC(=O)C2(c3ccc(NC(=O)C4CC4)cc3)CCC2)cc1
- RP-LC retention time: 853 s

SMILES: O=C(CC(SCCO)c1ccc([N+](=O)[O-])cc1)c1ccco1 (stereo not given)
- RP-LC retention time: 715 s

SMILES: Cc1cc(F)ccc1NC(=O)Cn1ccc2sccc2c1=O
- RP-LC retention time: 726 s

SMILES: CCn1cc(S(=O)(=O)N[C@@H]2CN(Cc3ccccn3)C[C@H]2CN(C)C)cn1
- RP-LC retention time: 524 s

SMILES: CCCS(=O)(=O)Nc1cccc(-c2cn3cccc(C)c3n2)c1
- RP-LC retention time: 624 s

SMILES: CC(C)NC(=O)c1ccc2c(c1)CCCN2S(C)(=O)=O
- RP-LC retention time: 717 s

SMILES: COc1ccccc1N1CCN(C(=O)C2CCN(c3cnc4nccnc4c3)CC2)CC1
- RP-LC retention time: 673 s

SMILES: CCC(=O)N1CCc2cc(-c3ccc(C(=O)NCCc4ccco4)cc3)ccc21
- RP-LC retention time: 888 s

SMILES: COC(=O)c1c(C)[nH]c(C(=O)N2CCCC(C(=O)NCCC(C)C)C2)c1C (stereo not given)
- RP-LC retention time: 730 s

SMILES: COC1CCOC2(CCN(C(=O)c3ccsc3)CC2)C1 (stereo not given)
- RP-LC retention time: 676 s

SMILES: CC1CCCCN1CCCNC(=O)CC1CCN(C(=O)C2CCCCC2)CC1 (stereo not given)
- RP-LC retention time: 605 s

SMILES: CC(=O)Nc1ccc(NC(=S)NC(=O)c2ccc(C(C)(C)C)cc2)cc1
- RP-LC retention time: 986 s

SMILES: Cn1cc(-c2cc3n(n2)CCCN3C(=O)CCC(=O)N2CCCCC2)c2ccccc21
- RP-LC retention time: 753 s

SMILES: Cc1sc2nc(SCC(=O)Nc3ccc(S(N)(=O)=O)cc3)nc(N)c2c1C
- RP-LC retention time: 682 s

SMILES: CCCSCCCNC(=O)C1CCCN(c2nc3ccccc3n(CC)c2=O)C1 (stereo not given)
- RP-LC retention time: 1040 s

SMILES: CC(C)c1ccc(NC(=O)Cc2csc3nc(-c4ccccc4)cn23)cc1
- RP-LC retention time: 970 s

SMILES: CCn1cc(CCN2CCN(S(=O)(=O)c3ccc(F)cc3)CC2)c2cccnc21
- RP-LC retention time: 638 s

SMILES: Cc1nc(C(=O)NC2CCCCC2)c(C)n1C1CCN(C)CC1
- RP-LC retention time: 555 s

SMILES: Cc1nc2c(n1C)CN(C(=O)Cc1c(F)cccc1Cl)CC2
- RP-LC retention time: 594 s

SMILES: O=C(NCc1ccc(Cl)cc1)C1CCN(c2cncnc2N2CCOCC2)CC1
- RP-LC retention time: 647 s

SMILES: CCN(CC)Cc1ccc2cc(COC(=O)Nc3ccc(C(=O)NO)cc3)ccc2c1
- RP-LC retention time: 654 s

SMILES: CCC(c1cccs1)N1C(=O)[C@H]2CN(S(=O)(=O)c3cccc(F)c3)C[C@H]2C1=O (stereo not given in full)
- RP-LC retention time: 972 s

SMILES: O=C(NCc1c(F)cccc1F)C(=O)NCc1n[nH]c(=O)c2ccccc12
- RP-LC retention time: 695 s

SMILES: COc1ccc(NC(=O)C2CCN(S(=O)(=O)c3c(C)nn(-c4ccccc4)c3C)CC2)cc1OC
- RP-LC retention time: 859 s

SMILES: CCCn1c(=O)sc2cc(S(=O)(=O)N3CCC(C(=O)NC(C)(C)CC)CC3)ccc21
- RP-LC retention time: 979 s

SMILES: CCc1ccc(C2=C(C)C(N3CCCN(C(=O)c4ccsc4)CC3)=NS2(=O)=O)cc1
- RP-LC retention time: 859 s

SMILES: CN1CCN(C(CNC(=O)c2ccc(Br)o2)c2ccc(N(C)C)cc2)CC1 (stereo not given)
- RP-LC retention time: 566 s

SMILES: COCCNC(=O)Cn1nc(C)c2sc(-c3ccccc3)nc2c1=O
- RP-LC retention time: 682 s

SMILES: CC(C)c1ccc(S(=O)(=O)N2CCc3c(c(-c4nnc(-c5ccccc5F)o4)nn3C)C2)cc1
- RP-LC retention time: 1070 s

SMILES: CC1CN=C2C=C(N3CCN(C(=O)Nc4ccccc4Cl)CC3)N=CN21 (stereo not given)
- RP-LC retention time: 618 s

SMILES: Cc1ccc(CN2CCCn3nc(C(=O)NCCN4CCCCC4)cc3C2=O)cc1
- RP-LC retention time: 631 s

SMILES: CCOc1cc(=O)n2c(c1C(=O)Nc1ccc(OC)cc1OC)CCCC2
- RP-LC retention time: 706 s

SMILES: COc1ccc(-c2noc(CS(=O)(=O)c3ccc(C)cc3)n2)cc1OC
- RP-LC retention time: 990 s

SMILES: CCN1C(=O)c2cccnc2Sc2cc(CNC(=O)COc3cccc(C)c3)ccc21
- RP-LC retention time: 846 s

SMILES: O=C(Cn1c2ccccc2c2ncn(Cc3nc(C4CC4)no3)c(=O)c21)NCCC1=CCCCC1
- RP-LC retention time: 940 s

SMILES: Cn1c(=O)sc2cc(S(=O)(=O)N3CCC(C(=O)NCCN4CCCCCC4)CC3)ccc21
- RP-LC retention time: 623 s

SMILES: CCS(=O)(=O)N1CC(=O)N(c2ccc(C)c(Cl)c2)C(C)(C(=O)NC2CCCCCC2)C1 (stereo not given)
- RP-LC retention time: 1010 s

SMILES: O=C(NC1CCCC1)C1(CCO)CCN(Cc2ccccc2)C1 (stereo not given)
- RP-LC retention time: 609 s

SMILES: CCN1CCN(c2cc(C(=O)O)c3cc(NS(=O)(=O)c4ccccc4C)ccc3n2)CC1
- RP-LC retention time: 618 s

SMILES: CCNC(=O)C1CCN(c2nc3ccc(-c4cccnc4)nc3s2)CC1
- RP-LC retention time: 591 s

SMILES: CO[C@H]1C(=O)N(C(C)C)[C@H]1C1CCN(C(=O)CN2C(=O)CCC2=O)CC1
- RP-LC retention time: 607 s

SMILES: Cc1ccc(CNC(=O)C2CCN(S(=O)(=O)c3cn(C)cn3)CC2)cc1
- RP-LC retention time: 732 s

SMILES: COc1cccc(OC)c1C(=O)Nc1cc2c(cc1S(=O)(=O)c1ccc(F)cc1)n(C)c(=O)n2C
- RP-LC retention time: 852 s

SMILES: CCOC(=O)c1c(NCc2ccc(F)cc2)c2ccc(Cl)cc2[nH]c1=O
- RP-LC retention time: 858 s

SMILES: Cc1cccn2cc(-c3ccc(NC(=O)c4ncccn4)cc3)nc12
- RP-LC retention time: 680 s

SMILES: CCc1ccc(NC(=O)c2cc(C)n3nccc3n2)cc1
- RP-LC retention time: 1030 s

SMILES: Cc1cc(OCC(O)CNCc2ccco2)ccc1Cl (stereo not given)
- RP-LC retention time: 588 s

SMILES: Cc1nnsc1C(=O)NCC(F)(F)F
- RP-LC retention time: 649 s

SMILES: Cc1cccc(-c2noc(CCn3nc(-c4ccccc4)ccc3=O)n2)c1
- RP-LC retention time: 1020 s

SMILES: C#CC(C)(CC)OCC(O)CN1C(C)(C)CC(O)CC1(C)C (stereo not given)
- RP-LC retention time: 568 s

SMILES: O=C(Cc1ccc(NS(=O)(=O)c2ccc3c(c2)CCCC3)cc1)NC1CC1
- RP-LC retention time: 766 s

SMILES: CCC1Oc2ccc(S(=O)(=O)N3CCC(C(=O)NCc4ccccc4)CC3)cc2NC1=O (stereo not given)
- RP-LC retention time: 824 s

SMILES: O=c1[nH]cc(S(=O)(=O)N2CCOCC2)c(=O)[nH]1
- RP-LC retention time: 546 s

SMILES: COc1ccc(OC)c(NC(=O)Cn2nc3c4cc(Cl)ccc4ncn3c2=O)c1
- RP-LC retention time: 740 s

SMILES: O=C([C@@H]1C[C@H](F)CN1C(=O)Nc1ccc(Br)cc1)N1CCCCC1
- RP-LC retention time: 725 s

SMILES: O=C(CCc1nc2ccccc2s1)NC1CCN(C(=O)N2C[C@H]3C[C@H](C2)[C@H]2CCCC(=O)N2C3)CC1
- RP-LC retention time: 661 s

SMILES: CC(C)c1nc(-n2cccc2)sc1C(=O)NCCCN1CCCCC1
- RP-LC retention time: 719 s

SMILES: COc1ccc(CC(=O)NCC(=O)Nc2nc3ccccc3[nH]2)c(Cl)c1
- RP-LC retention time: 653 s

SMILES: CCCCNC(=O)CCc1cc2cc(OC)ccc2[nH]c1=O
- RP-LC retention time: 664 s

SMILES: O=C(NCCN1CCCCC1)c1ccc2c(=O)n(-c3ccccc3)c(N3CCCC3)nc2c1
- RP-LC retention time: 614 s

SMILES: COc1ccc(OC)c(CNC(=O)c2nc(N3CCCC3)c3ccccc3n2)c1
- RP-LC retention time: 707 s

SMILES: CC(C)C(=O)NCCN1CCN(c2ccc(F)cc2)CC1
- RP-LC retention time: 561 s

SMILES: Cc1cnc(-c2ccccc2)n1C1CN(S(=O)(=O)c2cccs2)C1
- RP-LC retention time: 653 s

SMILES: CN(C)c1ccc2c(c1)CN(C(=O)c1cnccn1)CCO2
- RP-LC retention time: 566 s

SMILES: COc1ccc(C(=O)N2CCc3cc(-c4csc(C)n4)ccc32)cc1
- RP-LC retention time: 972 s

SMILES: COc1ccc2c(NCCCCCCNc3c4ccccc4nc4cc(OC)ccc34)c3ccccc3nc2c1
- RP-LC retention time: 655 s

SMILES: Cc1nc(-c2ccccc2)cc2nn(CC(=O)NCc3ccc(F)cc3)c(=O)n12
- RP-LC retention time: 559 s

SMILES: COc1ccc(S(=O)(=O)N2C[C@@H](F)C[C@H]2C(=O)N2CCCCC2)cc1
- RP-LC retention time: 762 s

SMILES: CC1SC(C)C(=O)N(CC(=O)NCCc2ccccc2)C1=O (stereo not given)
- RP-LC retention time: 764 s

SMILES: O=C(CCc1nnc2c3cc(-c4ccc(F)cc4)nn3ccn12)N1CCN(c2ccccn2)CC1
- RP-LC retention time: 611 s

SMILES: COc1ccc(CCN2CC(C(=O)N3CCN(C(C)C)CC3)CC2=O)cc1OC (stereo not given)
- RP-LC retention time: 553 s

SMILES: CC1CCc2[nH]nc(C(=O)NC3CCCC3)c2C1 (stereo not given)
- RP-LC retention time: 806 s
